Laboratory results from patent publication US11242346B2, “Mechanistic target of rapamycin signaling pathway inhibitors and therapeutic applications thereof” (SUZHOU KINTOR PHARMACEUTICALS, INC., priority 2016, dated 2022).

Legend:
[1] = target: mTOR (FRAP1) (Homo sapiens, UniProt P42345); test: SelectScreen Profiling, Z'-LYTE kinase assay, mTOR (FRAP1); assay type: biochemical; details: 0.1 μM compound, ATP at Km, read-out: mTOR inh% @0.1 μM
Source text: (§1) Some of the example compounds were submitted to Life Technologies Corporation SelectScreen® Profiling Service to test their potency in inhibiting the kinase catalytic activities of mTOR, PI3Kα, VEGF2, FGFR1, HER1 (EGFR) and HER2. A concentration of ATP at the Km of the corresponding kinase was used for all assays. The mTOR (FRAP1), VEGF2, FGFR1, HER1 (EGFR) and HER2 assays used Z′-LYTE® technology. The PI3Kα assay used Adapta® technology. The symbol “inh %” as used herein generally refers to inhibition percentage.

[2] = target: VEGF2 (Homo sapiens, UniProt P35968); test: SelectScreen Profiling, Z'-LYTE kinase assay, VEGF2; assay type: biochemical; details: 1 μM compound, ATP at Km, read-out: VEGF 2 inh % @1 μM
Source text: as §1

[3] = target: FGFR1 (Homo sapiens, UniProt P11362); test: SelectScreen Profiling, Z'-LYTE kinase assay, FGFR1; assay type: biochemical; details: 1 μM compound, ATP at Km, read-out: FGFR 1 inh % @1 μM
Source text: as §1

[4] = target: HER1 (EGFR) (Homo sapiens, UniProt P00533); test: SelectScreen Profiling, Z'-LYTE kinase assay, HER1 (EGFR); assay type: biochemical; details: 1 μM compound, ATP at Km, read-out: HER1 inh % @1 μM
Source text: as §1

[5] = target: HER2 (Homo sapiens, UniProt P04626); test: SelectScreen Profiling, Z'-LYTE kinase assay, HER2; assay type: biochemical; details: 1 μM compound, ATP at Km, read-out: HER2 inh % @1 μM
Source text: as §1

[6] = system: mammalian tumor cell lines such as PC-3, LNCAP, U87, Huh-7, HepG2 and MDA-MB-468; test: Cell proliferation/survival MTT assay in tumor cell lines; assay type: cell-based; details: 5 days (120 h) culture; cell line not specified; read-out: IC50, inhibition of tumor cell growth (MTT)
Experimental: The cytotoxic or cytostatic activity of Formula I-III exemplary compounds was measured by establishing proliferating mammalian tumor cell lines such as PC-3, LNCAP, U87, Huh-7, HepG2 and MDA-MB-468 in a cell culture medium, adding a test compound, culturing the cells for a period of 5 days by measuring cell viability via MTT assays. Dose response data were obtained for each test compound and the degree of inhibition of tumor cell growth was expressed as an IC50 value. […] For example. For example, compounds of example 14, 15, 46,29, 45, 49, 122, 88, 54, 55, 58, 59, 63, 64, 66, 67, 68, 113, 86, 90.
PC-3 (or U87) cells were seeded in 96-well plates at low density (at 2,000 cells per well) in media supplemented with 10% FBS (growth media) and transferred to serum-free media (1% FBS) after 24 h. Designated concentrations of drug were added to each well. The cells were incubated for 120 h. At the end of drug exposure, 20 μL/well of MTT solution was added. After 4 h at 37° C. in a humidified 5% CO2 atmosphere, the absorbance at 490 nm was recorded by using a microplate reader. IC50 was calculated using GraphPad Prism version 5 for Windows. The curves were fit using a nonlinear regression model with a log (inhibitor) versus response formula.

[7] = system: PC-3; test: NCI60 panel growth inhibition, PC-3; assay type: cell-based; details: Homo sapiens
Experimental: (§2) Cell growth inhibitory activities against cancer cells of the present compounds were also evaluated by submitting selected the example compounds to US NCI-Chemotherapeutic Agents Repository for screening against NCI60 panel. The United States NCI-60 platform is a cancer cell platform established with 60 different human cancer cell lines from 9 different kinds of organs. This platform represents the biological characteristics of the corresponding tumor type. The drugs were screened by measuring the ability of each test compound at a range of concentrations to inhibit the growth of various tumor cells.

[8] = system: MCF-7; test: NCI60 panel growth inhibition, MCF-7; assay type: cell-based; details: Homo sapiens, MCF7
Experimental: as §2

[9] = system: HCT-116; test: NCI60 panel growth inhibition, HCT-116; assay type: cell-based; details: Homo sapiens
Experimental: as §2

[10] = system: NCI-H23; test: NCI60 panel growth inhibition, NCI-H23; assay type: cell-based; details: Homo sapiens
Experimental: as §2

[11] = system: NCI-H460; test: NCI60 panel growth inhibition, NCI-H460; assay type: cell-based; details: Homo sapiens
Experimental: as §2

[12] = system: SKOV-3; test: NCI60 panel growth inhibition, SKOV-3; assay type: cell-based; details: Homo sapiens, SK-OV-3
Experimental: as §2

[13] = system: A549; test: NCI60 panel growth inhibition, A549; assay type: cell-based; details: Homo sapiens
Experimental: as §2

[14] = system: NCI 60 human cell lines; test: NCI60 panel growth inhibition, average over 60 cell lines; assay type: cell-based
Experimental: as §2

[15] = Metabolic stability in human liver microsome (HLM); assay type: in vitro ADME; details: incubation with human liver microsome for 60 min
Experimental: (§3) Active mTOR inhibitors in enzymatic and/or cell-based assays herein were evaluated for pharmacokinetic properties. Preferable compounds are with pharmacokinetic properties of low clearance, long half-life and/or good oral bioavailability (Fpo). In vitro, selected example compounds were evaluated for metabolic stability by incubating with human liver microsome (HLM) for 60 min. Compounds that were metabolized slower (i.e. higher % remaining) are preferred. […] The more metabolic stable example compounds in the HLM assay were further evaluated for pharmacokinetic properties in vivo. In a representative experiment, selected example compounds were dosed to rats intravenously (IV, 5 mg/kg, 30% PEG400+30% PG+1% DMSO in saline) and orally (PO, 10 mg/kg, 2.4% DMSO+0.1% Tween80 in 0.5% CMC-Na), rat blood samples were taken at designed time points after dosing and analyzed for tested drug concentrations using LC-MS/MS. Pharmacokinetic parameters were derived from the time curve of drug concentrations.

[16] = Rat pharmacokinetic study (IV and PO); assay type: in vivo; details: for AUC(0-t) / Cmax / MRT / clearance / half-life / Tmax / bioavailability: blood; for bioavailability: PO 10 mg/kg vs IV 5 mg/kg, read-out: Fpo (oral bioavailability)
Experimental: as §3

[17] = target: PI3Kα (Homo sapiens, UniProt P42336); test: SelectScreen Profiling, Adapta kinase assay, PI3Kα; assay type: biochemical; details: 0.1 μM compound, ATP at Km, read-out: PI3Kα inh % @0.1 μM
[18] = Stability noted on isolation of the compound; assay type: physicochemical; details: after Prep-TLC purification
Experimental: To a mixture of compound 33 (80 mg, 0.28 mmol), compound 2 (22 mg, 0.09 mmol) and 2M Na2CO3 (1.2 mL) was added dioxane (6 mL). N2 was bubbled through the solution for 1.5 minutes, at which time Pd(dppf)Cl2 (12 mg, […]) was added. The reaction was stirred at 100° C. for 1 hour under N2. After cooling to room temperature, Ethyl acetate was added and the resulting slurry was sonicated and filtered. Additional ethyl acetate was used to wash the solid. The combined organic extracts were concentrated and the crude material was purified by Prep-TLC using Petroleum ether:Ethyl acetate (3:1) affording to Example 33 (10 mg),and the compound was unstable. ^1H NMR (400 MHz, CDCl3): δ 8.83 (s, 1H), 7.68-7.64 (m, 1H), 6.74-6.78 (m, 1H), 6.70-6.73 (m, 1H), 5.53 (bs, 2H), 4.11-4.04 (m, 4H), 3.87-3.82 (m, 4H). ESI-MS (M+H)^+: 366.1

Chain of PI3Kα (P42336 whole entry): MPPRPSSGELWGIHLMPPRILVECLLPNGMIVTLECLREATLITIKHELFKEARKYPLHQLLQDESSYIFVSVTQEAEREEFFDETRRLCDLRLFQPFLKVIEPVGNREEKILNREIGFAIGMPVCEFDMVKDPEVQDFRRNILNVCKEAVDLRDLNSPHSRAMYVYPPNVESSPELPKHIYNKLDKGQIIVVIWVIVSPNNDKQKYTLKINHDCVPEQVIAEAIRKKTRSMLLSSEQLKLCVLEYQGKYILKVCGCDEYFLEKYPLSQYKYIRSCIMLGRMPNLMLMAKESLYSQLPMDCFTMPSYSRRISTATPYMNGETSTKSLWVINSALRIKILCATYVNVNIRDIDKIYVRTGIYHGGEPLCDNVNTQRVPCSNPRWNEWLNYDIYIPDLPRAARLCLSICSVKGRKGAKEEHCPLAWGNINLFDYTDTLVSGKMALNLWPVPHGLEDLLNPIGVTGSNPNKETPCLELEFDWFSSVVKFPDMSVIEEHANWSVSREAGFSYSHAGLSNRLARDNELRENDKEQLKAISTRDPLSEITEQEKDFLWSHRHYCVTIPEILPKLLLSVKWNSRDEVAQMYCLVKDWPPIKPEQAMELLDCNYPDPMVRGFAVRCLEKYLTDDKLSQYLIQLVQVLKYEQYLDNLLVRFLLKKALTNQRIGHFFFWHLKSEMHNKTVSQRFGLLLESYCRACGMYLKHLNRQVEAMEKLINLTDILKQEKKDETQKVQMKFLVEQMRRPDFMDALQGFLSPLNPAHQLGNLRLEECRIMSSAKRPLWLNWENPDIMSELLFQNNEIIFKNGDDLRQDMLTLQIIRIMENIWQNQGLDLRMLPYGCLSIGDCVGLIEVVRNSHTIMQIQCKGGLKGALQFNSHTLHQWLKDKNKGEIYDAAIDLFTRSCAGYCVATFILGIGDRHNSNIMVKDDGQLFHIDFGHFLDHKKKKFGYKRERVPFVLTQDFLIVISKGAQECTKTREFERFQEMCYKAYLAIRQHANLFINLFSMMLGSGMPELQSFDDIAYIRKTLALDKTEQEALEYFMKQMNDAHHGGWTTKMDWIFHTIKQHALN
Chain of PI3Kα (P27986 whole entry partner): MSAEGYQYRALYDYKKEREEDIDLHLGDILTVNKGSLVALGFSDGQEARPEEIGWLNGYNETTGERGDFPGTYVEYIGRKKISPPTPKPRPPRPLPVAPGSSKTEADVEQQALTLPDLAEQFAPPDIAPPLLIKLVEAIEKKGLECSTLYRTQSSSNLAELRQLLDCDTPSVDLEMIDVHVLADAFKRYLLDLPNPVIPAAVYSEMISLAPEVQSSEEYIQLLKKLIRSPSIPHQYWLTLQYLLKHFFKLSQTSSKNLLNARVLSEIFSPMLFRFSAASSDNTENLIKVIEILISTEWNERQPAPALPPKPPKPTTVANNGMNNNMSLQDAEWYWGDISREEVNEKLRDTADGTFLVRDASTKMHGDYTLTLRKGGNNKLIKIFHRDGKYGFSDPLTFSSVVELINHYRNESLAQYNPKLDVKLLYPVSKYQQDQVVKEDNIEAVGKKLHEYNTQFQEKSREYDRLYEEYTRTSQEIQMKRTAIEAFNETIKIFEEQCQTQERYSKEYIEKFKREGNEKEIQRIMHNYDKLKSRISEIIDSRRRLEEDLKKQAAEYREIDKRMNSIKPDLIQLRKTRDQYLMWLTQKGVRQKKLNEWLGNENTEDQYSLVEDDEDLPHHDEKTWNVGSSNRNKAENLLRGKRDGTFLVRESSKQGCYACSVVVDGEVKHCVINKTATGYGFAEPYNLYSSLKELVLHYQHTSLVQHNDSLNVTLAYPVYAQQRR
Chain of HER1 (EGFR) (P00533 25-1210): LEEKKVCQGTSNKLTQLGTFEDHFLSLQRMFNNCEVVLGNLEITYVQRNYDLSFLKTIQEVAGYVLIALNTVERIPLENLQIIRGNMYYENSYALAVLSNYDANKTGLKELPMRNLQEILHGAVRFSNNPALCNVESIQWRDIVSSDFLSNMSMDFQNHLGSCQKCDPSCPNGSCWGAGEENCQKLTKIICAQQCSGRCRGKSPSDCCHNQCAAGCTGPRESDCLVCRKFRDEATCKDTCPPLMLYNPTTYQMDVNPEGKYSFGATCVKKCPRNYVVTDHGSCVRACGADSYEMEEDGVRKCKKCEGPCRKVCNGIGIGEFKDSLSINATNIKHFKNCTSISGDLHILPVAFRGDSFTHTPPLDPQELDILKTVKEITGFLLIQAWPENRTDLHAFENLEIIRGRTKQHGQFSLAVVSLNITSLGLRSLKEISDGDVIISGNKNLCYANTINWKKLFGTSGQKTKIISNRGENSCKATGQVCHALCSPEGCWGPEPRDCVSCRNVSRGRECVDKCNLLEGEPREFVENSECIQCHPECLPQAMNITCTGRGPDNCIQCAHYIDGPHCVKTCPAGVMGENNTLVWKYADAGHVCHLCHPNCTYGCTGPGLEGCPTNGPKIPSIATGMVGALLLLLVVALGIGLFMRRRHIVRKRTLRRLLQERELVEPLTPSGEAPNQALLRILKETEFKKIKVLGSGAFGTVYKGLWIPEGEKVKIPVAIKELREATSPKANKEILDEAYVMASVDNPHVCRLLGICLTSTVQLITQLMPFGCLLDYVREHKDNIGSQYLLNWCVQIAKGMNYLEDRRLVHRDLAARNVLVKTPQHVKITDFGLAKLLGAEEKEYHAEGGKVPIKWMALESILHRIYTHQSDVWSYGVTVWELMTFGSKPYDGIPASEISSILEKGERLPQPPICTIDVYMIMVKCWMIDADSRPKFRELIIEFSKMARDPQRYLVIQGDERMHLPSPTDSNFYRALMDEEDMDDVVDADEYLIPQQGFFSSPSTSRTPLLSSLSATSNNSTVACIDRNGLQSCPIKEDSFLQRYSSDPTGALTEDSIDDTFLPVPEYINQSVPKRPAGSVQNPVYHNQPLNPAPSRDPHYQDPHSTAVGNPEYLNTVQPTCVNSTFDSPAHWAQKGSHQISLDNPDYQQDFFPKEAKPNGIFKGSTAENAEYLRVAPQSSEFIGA
Chain of VEGF2 (P35968 20-1356): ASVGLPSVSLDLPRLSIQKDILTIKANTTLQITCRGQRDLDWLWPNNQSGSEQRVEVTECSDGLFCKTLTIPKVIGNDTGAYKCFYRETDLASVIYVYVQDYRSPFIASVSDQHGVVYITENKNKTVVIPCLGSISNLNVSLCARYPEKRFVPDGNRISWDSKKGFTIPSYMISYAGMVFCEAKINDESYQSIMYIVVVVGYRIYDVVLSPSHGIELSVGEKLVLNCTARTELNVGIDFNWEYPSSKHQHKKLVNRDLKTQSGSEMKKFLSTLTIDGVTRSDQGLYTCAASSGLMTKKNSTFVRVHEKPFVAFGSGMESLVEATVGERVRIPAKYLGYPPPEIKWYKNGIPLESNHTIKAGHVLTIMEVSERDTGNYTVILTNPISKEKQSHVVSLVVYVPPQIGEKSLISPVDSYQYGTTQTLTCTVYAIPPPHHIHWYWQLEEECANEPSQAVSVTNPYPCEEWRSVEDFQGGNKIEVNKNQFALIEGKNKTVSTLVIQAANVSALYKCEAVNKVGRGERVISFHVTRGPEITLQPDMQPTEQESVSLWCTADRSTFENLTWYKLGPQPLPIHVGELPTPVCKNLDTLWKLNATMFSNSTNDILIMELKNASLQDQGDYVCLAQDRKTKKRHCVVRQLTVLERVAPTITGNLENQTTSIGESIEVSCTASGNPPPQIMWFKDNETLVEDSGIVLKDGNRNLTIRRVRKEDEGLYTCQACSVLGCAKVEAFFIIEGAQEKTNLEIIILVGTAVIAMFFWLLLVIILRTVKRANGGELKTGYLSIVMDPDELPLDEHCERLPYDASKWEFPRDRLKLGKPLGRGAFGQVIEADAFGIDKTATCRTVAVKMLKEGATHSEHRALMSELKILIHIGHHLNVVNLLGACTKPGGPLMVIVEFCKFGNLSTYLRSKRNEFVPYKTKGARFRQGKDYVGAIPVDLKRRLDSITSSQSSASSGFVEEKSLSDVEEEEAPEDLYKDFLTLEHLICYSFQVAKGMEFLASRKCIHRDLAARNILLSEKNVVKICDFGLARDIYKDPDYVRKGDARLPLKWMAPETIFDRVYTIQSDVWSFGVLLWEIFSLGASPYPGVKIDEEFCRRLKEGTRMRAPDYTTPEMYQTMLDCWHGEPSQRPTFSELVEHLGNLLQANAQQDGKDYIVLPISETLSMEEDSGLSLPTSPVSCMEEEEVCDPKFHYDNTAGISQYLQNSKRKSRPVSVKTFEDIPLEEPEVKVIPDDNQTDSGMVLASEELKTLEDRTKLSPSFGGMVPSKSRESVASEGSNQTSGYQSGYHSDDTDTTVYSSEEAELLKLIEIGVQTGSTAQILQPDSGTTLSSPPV
Chain of FGFR1 (P11362 22-822): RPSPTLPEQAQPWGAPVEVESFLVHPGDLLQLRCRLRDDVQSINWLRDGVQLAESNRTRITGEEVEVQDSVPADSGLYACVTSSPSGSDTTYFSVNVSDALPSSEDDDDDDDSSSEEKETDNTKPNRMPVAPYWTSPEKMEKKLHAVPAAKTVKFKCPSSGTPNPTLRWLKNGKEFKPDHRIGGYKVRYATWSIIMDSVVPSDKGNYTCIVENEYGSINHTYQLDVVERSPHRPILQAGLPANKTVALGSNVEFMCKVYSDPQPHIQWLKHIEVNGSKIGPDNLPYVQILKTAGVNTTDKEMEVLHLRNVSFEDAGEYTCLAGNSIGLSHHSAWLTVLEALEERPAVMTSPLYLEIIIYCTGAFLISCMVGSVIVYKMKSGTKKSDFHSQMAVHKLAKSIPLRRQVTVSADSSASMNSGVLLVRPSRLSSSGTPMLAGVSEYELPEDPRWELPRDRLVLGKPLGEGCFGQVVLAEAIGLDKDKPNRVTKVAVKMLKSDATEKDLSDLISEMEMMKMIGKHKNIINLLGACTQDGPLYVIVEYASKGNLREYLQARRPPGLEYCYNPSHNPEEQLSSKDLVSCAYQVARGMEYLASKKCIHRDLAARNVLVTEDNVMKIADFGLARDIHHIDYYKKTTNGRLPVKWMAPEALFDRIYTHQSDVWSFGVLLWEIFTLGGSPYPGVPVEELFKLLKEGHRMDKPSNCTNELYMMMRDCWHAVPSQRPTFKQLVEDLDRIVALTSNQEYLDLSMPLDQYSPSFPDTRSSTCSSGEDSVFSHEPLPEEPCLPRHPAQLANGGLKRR

Structure (SMILES)	inhibition at 0.1 µM [1] [%]	inhibition at 1 µM [2] [%]	inhibition at 1 µM [3] [%]	inhibition at 1 µM [4] [%]	inhibition at 1 µM [5] [%]	metabolic stability in HLM [15]	AUC(0-t) ([16]; IV 5 mg/kg) [ng·h/mL]	Cmax ([16]; IV 5 mg/kg) [ng/mL]	MRT ([16]; IV 5 mg/kg) [h]	clearance ([16]; IV 5 mg/kg) [mL/min/kg]	half-life ([16]; IV 5 mg/kg) [h]	IC50 [6] [nM]	GI50 [7] [nM]	GI50 [8] [nM]	GI50 [9] [nM]	GI50 [10] [nM]	GI50 [11] [nM]	GI50 [12] [nM]	GI50 [13] [nM]	GI50 [14] [nM]	further results
O=C(Nc1ccc(-c2nc(N3CCOCC3)c3cccn3n2)cc1)Nc1cccnc1 [Example 14]	87	8	1	-1	-8	metabolically stable	10100	6560	1.7	10.3	1.3	< 500	51	48.3	41	269	142	98.7	244	120	inhibition at 0.1 µM [17]: 11%; CL ([16]; PO 10 mg/kg): 30.13 mL/min/kg; AUC(0-t) ([16]; PO 10 mg/kg): 4900 ng·h/mL; Cmax ([16]; PO 10 mg/kg): 784 ng/mL; MRT ([16]; PO 10 mg/kg): 5.71 h; Tmax ([16]; PO 10 mg/kg): 1 h; half-life ([16]; PO 10 mg/kg): 3.28 h; bioavailability [16]: 22%
CN(C)C1CCN(C(=O)c2ccc(NC(=O)Nc3ccc(-c4nc(N5CCOCC5)c5cccn5n4)cc3)cc2)CC1 [Example 15]	98	8	4	-2	-7	metabolically stable	3430	4710	5.57	17.8	4.98	< 500	25	< 10	65.7	123	67	46.3	54.5	76	inhibition at 0.1 µM [17]: 54%
Nc1ncc(-c2nc(N3CCOCC3)c3cccn3n2)c(C(F)(F)F)n1 [Example 33]	–	–	–	–	–	–	–	–	–	–	–	–	–	–	–	–	–	–	–	–	stability of the isolated compound [18]: unstable

Now from value to molecule, other results behind:

inhibition at 0.1 µM [1] [%]	inhibition at 1 µM [2] [%]	inhibition at 1 µM [3] [%]	inhibition at 1 µM [4] [%]	inhibition at 1 µM [5] [%]	metabolic stability in HLM [15]	AUC(0-t) ([16]; IV 5 mg/kg) [ng·h/mL]	Cmax ([16]; IV 5 mg/kg) [ng/mL]	MRT ([16]; IV 5 mg/kg) [h]	clearance ([16]; IV 5 mg/kg) [mL/min/kg]	half-life ([16]; IV 5 mg/kg) [h]	Structure (SMILES)	IC50 [6] [nM]	GI50 [7] [nM]	GI50 [8] [nM]	GI50 [9] [nM]	GI50 [10] [nM]	GI50 [11] [nM]	GI50 [12] [nM]	GI50 [13] [nM]	GI50 [14] [nM]	further results
86	11	-3	0	-6	metabolically stable	8760	8460	3.66	8.28	3.25	CN1CCN(C(=O)c2ccc(NC(=O)Nc3ccc(-c4nc(N5CCOCC5)c5cccn5n4)cc3)cc2)CC1 [Example 46]	< 500	23	14.4	60.2	96.2	59.7	26.8	66.5	59	–
94	-10	0	1	-1	metabolically stable	11400	4700	3.03	7.35	2.13	OCCNC(=S)Nc1ccc(-c2nc(N3C[C@H]4CC[C@@H](C3)O4)c3cccn3n2)cc1 [Example 122]	< 500	41	26.8	364	70.3	35.9	18.9	110	62	inhibition at 0.1 µM [17]: 8%; CL ([16]; PO 10 mg/kg): 13.3 mL/min/kg; AUC(0-t) ([16]; PO 10 mg/kg): 11900 ng·h/mL; Cmax ([16]; PO 10 mg/kg): 1910 ng/mL; MRT ([16]; PO 10 mg/kg): 7.33 h; Tmax ([16]; PO 10 mg/kg): 0.833 h; half-life ([16]; PO 10 mg/kg): 4.72 h; bioavailability [16]: 48%
